From paper PMC3871271 (FEBS Open Bio, 2013)
Entries after “also recorded” stand apart in the source; their conditions may differ. Read-outs that look alike come from different tables or passages of the source.

Assays:
[1] = test system: C-SdCen E144A; assay: ITC binding of target peptides to C-SdCen E144A; set-up: species or system Scherffelia dubia; settings: for TΔS / ΔG: pH 7.5; for TΔS: from ΔG = ΔH − TΔS; for ΔG: ΔG = −RTln(1/Ka); for ΔΔH: difference in binding enthalpy SdCen wt vs E144A; for ΔΔH / ΔΔG: EDTA 2 mM; for ΔΔG: difference in free energy SdCen wt vs E144A; for factor of decrease in affinity by E144A: absence of calcium
[2] = test system: C-SdCen F109L-E144A; assay: ITC binding of target peptides to C-SdCen F109L-E144A; set-up: species or system Scherffelia dubia; settings: for effect of F109L-E144A mutation on binding (in words): F109L-E144A vs WT and single mutants; for TΔS / ΔG: F109L-E144A, pH 7.5; for TΔS: from ΔG = ΔH − TΔS; for ΔG: ΔG = −RTln(1/Ka); for ΔΔH: difference in binding enthalpy SdCen wt vs F109L-E144A; for ΔΔH / ΔΔG: EDTA 2 mM; for ΔΔG: difference in free energy SdCen wt vs F109L-E144A
[3] = test system: C-SdCen F109L; assay: ITC binding of target peptides to C-SdCen F109L; set-up: species or system Scherffelia dubia; settings: for effect of F109L mutation on binding (in words) / factor of increase in change in enthalpy (ΔH) / factor of reduction of binding constant by F109L / factor of decrease in Ka by F109L: F109L vs WT; for factor of increase in change in enthalpy (ΔH) / factor of reduction of binding constant by F109L: EDTA; for factor of decrease in Ka by F109L: temperature not stated; for TΔS / ΔG: F109L, pH 7.5; for TΔS: from ΔG = ΔH − TΔS; for ΔG: ΔG = −RTln(1/Ka); for ΔΔH: difference in binding enthalpy SdCen wt vs F109L; for ΔΔH / ΔΔG: EDTA 2 mM; for ΔΔG: difference in free energy SdCen wt vs F109L
[4] = test system: C-SdCen WT (C-terminal domain M93-F168 of SdCen); assay: ITC binding of target peptides to wild-type C-SdCen; set-up: species or system Scherffelia dubia; settings: for TΔS / ΔG / Ka / ΔH: pH 7.5; for TΔS: from ΔG = ΔH − TΔS; for ΔG: ΔG = −RTln(1/Ka); for effect of calcium on binding (in words): presence vs absence of calcium; for Ka / ΔH: MOPS 50 mM, NaCl 100 mM, SD of fit in parenthesis
[5] = target: T1, C-terminal domain of Scherffelia dubia centrin, wild type (Scherffelia dubia, UniProt Q06827 93-168); assay: ITC
T1 sequence (looked up): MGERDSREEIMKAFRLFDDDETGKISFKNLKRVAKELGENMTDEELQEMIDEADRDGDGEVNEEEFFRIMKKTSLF

[6] = target: T1, C-terminal domain of Scherffelia dubia …; assay: ITC; remark: listed apart in the source
[7] = E144A, 30 °C, no Ca2+ (EDTA 2 mM)
[8] = E144A, 37 °C, no Ca2+ (EDTA 2 mM)
[9] = WT, EDTA, 30 °C to 37 °C, becoming more negative

677-SQHNRQLLRGALRRWK-692 [R18-Sfi1]
effect of E144A mutation on binding (in words) ([1]; E144A vs WT): no effect on the binding of C-SdCen to R18-Sfi1
effect of E144A mutation on binding (in words) ([1]; E144A vs WT, listed as Sfi1): had no effect on Sfi1 binding
TΔS [1, 7]: -88.12 kJ/mol
ΔG [1, 7]: -38.7 kJ/mol
TΔS [1, 8]: -112.5 kJ/mol
ΔΔH ([1]; 30 °C): -4.98 kJ/mol
ΔΔH ([1]; 37 °C): -3.64 kJ/mol
ΔΔG ([1]; 30 °C): -0.042 kJ/mol
effect of F109L-E144A mutation on binding (in words) [2]: exhibited the same behavior as wild-type SdCen at both temperatures
TΔS ([2]; 30 °C, no Ca2+ (EDTA 2 mM)): -68.32 kJ/mol
ΔG ([2]; 30 °C, no Ca2+ (EDTA 2 mM)): -33.8 kJ/mol
TΔS ([2]; 37 °C, no Ca2+ (EDTA 2 mM)): -76.32 kJ/mol
ΔΔH ([2]; 30 °C): -29.7 kJ/mol
ΔΔH ([2]; 37 °C): -44.6 kJ/mol
ΔΔG ([2]; 30 °C): -4.98 kJ/mol
ΔΔG ([2]; 37 °C): -4.69 kJ/mol
effect of F109L mutation on binding (in words) [3]: reduced the binding; also recorded: decreased the binding
factor of increase in change in enthalpy (ΔH) ([3]; 30 °C): 1.4
factor of reduction of binding constant by F109L ([3]; 30 °C): 6
factor of increase in change in enthalpy (ΔH) ([3]; 37 °C): 1.4
factor of reduction of binding constant by F109L ([3]; 37 °C): 6
factor of decrease in Ka by F109L [3]: 6
TΔS ([3]; 30 °C, no Ca2+ (EDTA 2 mM)): -62.59 kJ/mol
ΔG ([3]; 30 °C, no Ca2+ (EDTA 2 mM)): -34.5 kJ/mol
TΔS ([3]; 37 °C, no Ca2+ (EDTA 2 mM)): -93.3 kJ/mol
ΔG ([3]; 37 °C, no Ca2+ (EDTA 2 mM)): -33.9 kJ/mol
ΔΔH ([3]; 30 °C): -34.7 kJ/mol
ΔΔH ([3]; 37 °C): -28 kJ/mol
ΔΔG ([3]; 30 °C): -4.27 kJ/mol
ΔΔG ([3]; 37 °C): -5.06 kJ/mol
effect of temperature increase (in words) ([4]; WT, 30 °C to 37 °C, XPC vs Sfi1): a more pronounced effect on Sfi1
TΔS ([4]; WT, 30 °C, no Ca2+ (EDTA 2 mM)): -93.05 kJ/mol
ΔG ([4]; WT, 30 °C, no Ca2+ (EDTA 2 mM)): -38.7 kJ/mol
TΔS ([4]; WT, 37 °C, no Ca2+ (EDTA 2 mM)): -116.2 kJ/mol
factor of decrease in binding on temperature increase ([4]; WT, EDTA, 30 °C to 37 °C): 4
factor of decrease in TΔS on temperature increase [4, 9]: 1.3
factor of decrease in ΔH on temperature increase [4, 9]: 1.2
effect of calcium on binding (in words) ([4]; WT): the presence of calcium enhanced the binding
effect of calcium on binding (in words) ([4]; WT, listed as Sfi1): Calcium was not required for binding although its presence enhanced the binding

846-NWKLLAKGLLIRERLKR-863 [P17-XPC]
factor of decrease in affinity by E144A ([1]; E144A vs WT, 30 °C): 3
factor of decrease in affinity by E144A ([1]; E144A vs WT, 37 °C): 4
ΔH compared to wild type (in words) ([1]; E144A vs WT, EDTA): the same as for the wild type
effect of E144A mutation on binding (in words) ([1]; E144A vs WT, listed as XPC): reduced the binding to XPC
TΔS ([1]; E144A, 30 °C, Ca2+ 2 mM): -39.2 kJ/mol
ΔG ([1]; E144A, 30 °C, Ca2+ 2 mM): -46.36 kJ/mol
TΔS [1, 7]: -82.76 kJ/mol
ΔG [1, 7]: -40.7 kJ/mol
TΔS ([1]; E144A, 37 °C, Ca2+ 2 mM): -57.57 kJ/mol
ΔG ([1]; E144A, 37 °C, Ca2+ 2 mM): -47.74 kJ/mol
TΔS [1, 8]: -119.9 kJ/mol
effect of calcium on affinity (in words) ([1]; E144A, presence vs absence of calcium): addition of calcium enhanced the affinity
ΔΔH ([1]; 30 °C): -18 kJ/mol
ΔΔH ([1]; 37 °C): -9.2 kJ/mol
ΔΔG ([1]; 30 °C): -2.89 kJ/mol
effect of F109L-E144A mutation on binding (in words) ([2]; listed as XPC): enhanced the negative effect of the two single mutations on XPC binding; also recorded: further reduced XPC binding
TΔS ([2]; 30 °C, Ca2+ 2 mM): -15.4 kJ/mol
ΔG ([2]; 30 °C, Ca2+ 2 mM): -43.6 kJ/mol
ΔG ([2]; 30 °C, no Ca2+ (EDTA 2 mM)): -32.7 kJ/mol
TΔS ([2]; 37 °C, Ca2+ 2 mM): -27.6 kJ/mol
ΔG ([2]; 37 °C, Ca2+ 2 mM): -44.31 kJ/mol
TΔS ([2]; 37 °C, no Ca2+ (EDTA 2 mM)): -55.27 kJ/mol
ΔΔH ([2]; 30 °C): -48.5 kJ/mol
ΔΔH ([2]; 37 °C): -81.2 kJ/mol
ΔΔG ([2]; 30 °C): -10.9 kJ/mol
ΔΔG ([2]; 37 °C): -11.2 kJ/mol
factor of increase in change in enthalpy (ΔH) ([3]; 30 °C): 1.7
factor of reduction of binding constant by F109L ([3]; 30 °C): 15
factor of increase in change in enthalpy (ΔH) ([3]; 37 °C): 1.4
factor of reduction of binding constant by F109L ([3]; 37 °C): 15
factor of decrease in Ka by F109L [3]: 15
effect of F109L mutation on binding (in words) ([3]; listed as XPC): reduced the binding; also recorded: decreased the binding
TΔS ([3]; 30 °C, Ca2+ 2 mM): -20 kJ/mol
ΔG ([3]; 30 °C, Ca2+ 2 mM): -45.4 kJ/mol
TΔS ([3]; 30 °C, no Ca2+ (EDTA 2 mM)): -49.71 kJ/mol
ΔG ([3]; 30 °C, no Ca2+ (EDTA 2 mM)): -36.5 kJ/mol
TΔS ([3]; 37 °C, Ca2+ 2 mM): -25.9 kJ/mol
ΔG ([3]; 37 °C, Ca2+ 2 mM): -45.06 kJ/mol
ΔΔH ([3]; 30 °C): -55.2 kJ/mol
ΔΔH ([3]; 37 °C): -72.97 kJ/mol
ΔΔG ([3]; 30 °C): -7.07 kJ/mol
ΔΔG ([3]; 37 °C): -8.49 kJ/mol
Ka ([4]; WT, 30 °C, Ca2+ 2 mM): 59.4(9.10) 10^6 M^−1
ΔH ([4]; WT, 30 °C, Ca2+ 2 mM): −23.4(0.16) kcal/mol
TΔS ([4]; WT, 30 °C, Ca2+ 2 mM): -52.84 kJ/mol
ΔG ([4]; WT, 30 °C, Ca2+ 2 mM): -45.06 kJ/mol
factor of higher affinity for P17-XPC than for R18-Sfi1 ([4]; WT, 30 °C, EDTA): 7
ΔG ([4]; WT, 30 °C, no Ca2+ (EDTA 2 mM)): -43.56 kJ/mol
Ka ([4]; WT, 37 °C, Ca2+ 2 mM): 73.2(7.0) 10^6 M^−1
ΔH ([4]; WT, 37 °C, Ca2+ 2 mM): −23.36(0.08) kcal/mol
TΔS ([4]; WT, 37 °C, Ca2+ 2 mM): -50.96 kJ/mol
ΔG ([4]; WT, 37 °C, Ca2+ 2 mM): -46.78 kJ/mol
factor of higher affinity for P17-XPC than for R18-Sfi1 ([4]; WT, 37 °C, EDTA): 10
TΔS ([4]; WT, 37 °C, no Ca2+ (EDTA 2 mM)): -125.3 kJ/mol
difference in ΔH between P17-XPC and R18-Sfi1 ([4]; WT, EDTA, 30 °C and 37 °C): 13 kJ/mol
factor of decrease in binding on temperature increase ([4]; WT, EDTA, 30 °C to 37 °C): 3
factor of decrease in ΔH on temperature increase [4, 9]: 1.2
effect of calcium on binding (in words) ([4]; WT): the presence of calcium enhanced the binding
effect of calcium on binding (in words) ([4]; WT, listed as XPC): Calcium was not required for binding although its presence enhanced the binding; also recorded: addition of calcium enhanced the affinity
affinity comparison XPC vs Sfi1 (in words) ([4]; centrin, ITC, present and previous work): better for XPC than for other targets such as Sfi1

Ac-SQHNRQLLRGALRRWK-NH2 [R18-HsSfi1 peptide]
Ka [5]: 4.5e+06 M⁻¹
dH [5]: -132 kJ/mol
Ka [6]: 1.23e+06 M⁻¹
dH [6]: -155 kJ/mol
